Measured values: ChEMBL document CHEMBL1132225, “Novel antidiabetic and hypolipidemic agents. 3. Benzofuran-containing thiazolidinediones” (J Med Chem, 1999)
Calls of active or inactive are those of the source. No cut-off for these calls is given here.

What was measured:
Mus musculus [1] = species: Mus musculus; test: Percent reduction of plasma glucose after 6 days of treatment (various doses).; assay type: functional
Mus musculus [2] = species: Mus musculus; test: The compound was tested for percent reduction of plasma triglyceride after 6 days of treatment.; assay type: functional; set-up: concentration or dose not given beside the values
Mus musculus [3] = test: Percent reduction of plasma glucose (PG) after 6 days of treatment. It is the mean of standard deviation observed in plasma glucose (PG) in db/db mice at dose of 100 mg/kg/day; assay type: functional; conditions: route oral
Mus musculus [4] = test: Percent reduction in plasma triglyceride (TG) after 6 days of treatment. It is the mean of standard deviation observed in plasma triglyceride (TG) in db/db mice at dose of 100 mg/kg/day; NA = Not Active; assay type: functional
Mus musculus [5] = test: Percent reduction of plasma glucose (PG) after 6 days of treatment. It is the mean of standard deviation observed in plasma glucose (PG) in db/db mice at dose of 100 mg/kg/day; NA = Not Active; assay type: functional, organism-based
Mus musculus [6] = species: Mus musculus; test: The compound was tested for percent reduction of plasma triglyceride after 6 days of treatment; Not Active; assay type: functional, organism-based
Mus musculus [7] = test: Percent reduction of plasma glucose (PG) after 6 days of treatment. It is the mean of standard deviation observed in plasma glucose (PG) in db/db mice at dose of 30 mg/kg/day; assay type: functional; conditions: route oral
Mus musculus [8] = test: Percent reduction in plasma triglyceride (TG) after 6 days of treatment. It is the mean of standard deviation observed in plasma triglyceride (TG) in db/db mice at dose of 30 mg/kg/day; assay type: functional; conditions: route oral
[9] = biological target: T1, Peroxisome proliferator-activated receptor alpha (Homo sapiens) (UniProt Q07869); test: The fold activation against 50 u M Peroxisome proliferator activated receptor alpha(amino acids 167-468)
T1 sequence (whole entry): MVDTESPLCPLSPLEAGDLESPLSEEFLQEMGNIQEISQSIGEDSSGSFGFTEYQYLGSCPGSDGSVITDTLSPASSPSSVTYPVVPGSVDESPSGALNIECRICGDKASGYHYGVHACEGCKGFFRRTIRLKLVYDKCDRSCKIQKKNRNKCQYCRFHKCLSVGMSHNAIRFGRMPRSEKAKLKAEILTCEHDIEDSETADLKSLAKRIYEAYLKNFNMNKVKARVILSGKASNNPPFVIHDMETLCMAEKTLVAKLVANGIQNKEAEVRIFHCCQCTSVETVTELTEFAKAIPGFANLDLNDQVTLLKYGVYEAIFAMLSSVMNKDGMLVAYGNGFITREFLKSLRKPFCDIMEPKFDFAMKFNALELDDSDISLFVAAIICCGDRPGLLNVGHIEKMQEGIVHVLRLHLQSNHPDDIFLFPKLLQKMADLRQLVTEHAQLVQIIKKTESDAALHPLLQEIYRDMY

[10] = biological target: T2, Peroxisome proliferator-activated receptor gamma (Homo sapiens) (UniProt P37231); test: The fold activation against 1 amino acids 174-475)
T2 sequence (whole entry): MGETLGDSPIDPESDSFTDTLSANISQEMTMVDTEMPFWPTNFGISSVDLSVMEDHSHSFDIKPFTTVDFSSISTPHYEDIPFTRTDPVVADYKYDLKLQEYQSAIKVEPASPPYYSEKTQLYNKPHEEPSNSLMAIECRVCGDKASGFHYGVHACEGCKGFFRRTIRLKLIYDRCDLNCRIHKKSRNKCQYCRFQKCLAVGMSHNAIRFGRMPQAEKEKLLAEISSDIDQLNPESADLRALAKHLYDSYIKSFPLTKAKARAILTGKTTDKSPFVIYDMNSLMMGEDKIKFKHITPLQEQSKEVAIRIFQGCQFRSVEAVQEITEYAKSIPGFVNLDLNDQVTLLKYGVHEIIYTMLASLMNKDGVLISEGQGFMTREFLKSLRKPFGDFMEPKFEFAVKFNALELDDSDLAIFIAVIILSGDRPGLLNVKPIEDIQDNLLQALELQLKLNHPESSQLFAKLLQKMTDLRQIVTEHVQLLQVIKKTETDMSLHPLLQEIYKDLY

[11] = biological target: T1, Peroxisome proliferator-activated receptor alpha (Homo sapiens); test: Compound was tested for fold transactivation of human Peroxisome proliferator activated receptor alpha at 50 uM
Mus musculus [12] = species: Mus musculus; test: The compound was tested for percent reduction of plasma glucose after 6 days of treatment; Not Active; assay type: functional, organism-based
Mus musculus [13] = species: Mus musculus; test: The compound was tested for percent reduction of plasma triglyceride after 6 days of treatment; not active; assay type: functional, organism-based
[14] = Pharmacokinetic Parameter, half life period measured in Female Wistar Rats at 100 mg/kg by po administration; assay type: ADME, organism-based; set-up: dose 100 mg/kg, route oral; conditions: rat, in vivo
[15] = Pharmacokinetic Parameter, Tmax is the time at which maximum concentration (Cmax) is reached in Female Wistar Rats at 100 mg/kg by po administration; assay type: ADME, organism-based; set-up: dose 100 mg/kg, route oral; conditions: rat, in vivo
[16] = Pharmacokinetic Parameter, AUC (0-infinity) is the area under the plasma concentration versus time curve extrapolated to infinity in Female Wistar Rats at 100 mg/kg by po administration; assay type: ADME, organism-based; set-up: time infinity, dose 100 mg/kg, route oral; conditions: rat, read-out: AUC 0-infinity
[17] = Pharmacokinetic Parameter, AUC (0-t) is the area under the plasma concentration versus time curve in Female Wistar Rats at 100 mg/kg by po administration; assay type: ADME, organism-based; set-up: dose 100 mg/kg, route oral; conditions: rat
[18] = Pharmacokinetic Parameter, Cmax is observed maximum plasma concentration in Female Wistar Rats at 100 mg/kg by po administration; assay type: ADME, organism-based; set-up: dose 100 mg/kg, route oral; conditions: rat
[19] = Pharmacokinetic Parameter, Kel is elimination rate constant in Female Wistar Rats at 100 mg/kg by po administration; assay type: ADME, organism-based; set-up: dose 100 mg/kg, route oral; conditions: rat, in vivo

SMILES	Reduction (Mus musculus [1])	Reduction (Mus musculus [2])	PG (Mus musculus [3])	TG (Mus musculus [4])	Reduction (Mus musculus [6])	other results
Cc1c(C)c2c(c(C)c1O)C(COc1ccc(CC3SC(=O)NC3=O)cc1)C(C)(C)O2 (configuration not stated)	12%	31%				
Cc1c(C)c2c(c(C)c1O)C(CN(C)CCOc1ccc(/C=C3\SC(=O)NC3=O)cc1)C(C)(C)O2 (configuration not stated)	28%	76%	28%			TG (Mus musculus [4]; route oral): 76%
Cc1oc2c(C)c(C)c(OCc3ccccc3)c(C)c2c1CN1CCC[C@H]1COc1ccc(CC2SC(=O)NC2=O)cc1 (some centres not stated)				inactive		PG (Mus musculus [5]): inactive
Cc1oc2c(C)c(C)c(OCc3ccccc3)c(C)c2c1CN1CCC[C@H]1COc1ccc(/C=C2\SC(=O)NC2=O)cc1	50%		50%	inactive	inactive	
Cc1c(C)c2c(c(C)c1OCc1ccccc1)C(CN1CCC[C@H]1COc1ccc(/C=C3\SC(=O)NC3=O)cc1)C(C)(C)O2.Cl (some centres not stated)	25%	57%				PG (Mus musculus [7]): 25%; TG (Mus musculus [8]): 57%
Cc1c(C)c2c(c(C)c1O)C(CN1CCC[C@H]1COc1ccc(/C=C3\SC(=O)NC3=O)cc1)C(C)(C)O2 (some centres not stated)	19%		19%	inactive	inactive	Fold activation [9]: 0.28; Fold activation [10]: 0.84; Transactivation [11]: 0.28 fold
Cc1oc2c(C)c(C)c(OCc3ccccc3)c(C)c2c1CN1CCC[C@@H](Oc2ccc(/C=C3\SC(=O)NC3=O)cc2)C1				inactive		Reduction (Mus musculus [12]): inactive; Reduction (Mus musculus [13]): inactive; PG (Mus musculus [5]): inactive
Cc1c(C)c2c(c(C)c1OCc1ccccc1)C(CN1CCC[C@H]1COc1ccc(/C=C3\SC(=O)NC3=O)cc1)C(C)(C)O2.O=C(O)/C=C\C(=O)O (some centres not stated)						half-life [14]: 10.1 h; Tmax [15]: 5 h; AUC(0-inf) [16]: 65000 ng·h/mL; AUC(0-t) [17]: 53800 ng·h/mL; Cmax [18]: 4300 ng/mL; k el [19]: 1.94e-05 s⁻¹; PG (Mus musculus [7]): 45%; TG (Mus musculus [8]): 42%
Cc1c(C)c2c(c(C)c1OCc1ccccc1)C(CN1CCC[C@H]1COc1ccc(CC3SC(=O)NC3=O)cc1)C(C)(C)O2 (some centres not stated)						Fold activation [9]: 0.33; Fold activation [10]: 0.17; Transactivation [11]: 0.33 fold
Cc1oc2c(C)c(C)c(O)c(C)c2c1CN1CCC[C@@H](Oc2ccc(/C=C3\SC(=O)NC3=O)cc2)C1	22%		22%	inactive	inactive	
